Measurements reported in US5416099A, “Fibrinogen receptor antagonists” (Merck & Co., Inc., priority 1993, dated 1995).
pIC50: −log10 of the molar value.

System: Human platelets
Assay: ADP-stimulated platelet aggregation assay (gel-filtered human platelets)
Assay type: cell-based
Conditions: fibrinogen 100 μg/ml, Ca^2+ 1 mM, 10 uM ADP, 37° C., read-out: platelet aggregation inhibition potency, IC50
Description: An ADP-stimulated platelet aggregation assay was used to determine inhibition associated with compounds of the invention.
Human platelets were isolated from fresh blood, collected into acid citrate/dextrose by differential centrifugation followed by gel filtration on Sepharose 2B in divalent ion-free Tyrode's buffer (pH 7.4) containing 2% bovine serum albumin. Platelet aggregation was measured at 37° C. in a a Chronolog aggregometer. The reaction mixture contained gel-filtered human platelets (2×10^8 per ml), fibrinogen (100 μg/ml), Ca^2+ (1 mM), and the compound to be tested. Aggregation was initiated by adding 10 uM ADP 1 minute after the other components had been added. The reaction was allowed to proceed for at least 2 minutes. The extent of inhibition of aggregation was expressed as the percentage of the rate of aggregation observed in the absence of inhibitor. The IC50 is the dose of a particular compound inhibiting aggregation by 50% relative to a control lacking the compound.

Row | SMILES | pIC50
1 | O=C(O)CCNC(=O)c1ccc2c(c1)C(=O)N(CCCC1CCNCC1)C2 | 6.04
2 | O=C(O)CNC(=O)c1ccc2c(c1)C(=O)N(CCCC1CCNCC1)C2 | 4.85
